Laboratory results: US11872237B2, “Pharmaceutical composition and preparation method thereof” (Ascentage Pharma (Suzhou) Co., Ltd., priority 2019, dated 2024)
Converted amounts (≈) assume the structure as drawn.

Tests used:
[1] = Effect of surfactant on solubility and clarity of Compound 1 (appearance observation); type: physicochemical; details: PEG400, ethanol, mannitol
Protocol: 3. The effects of the Polyoxyl 35 Castor Oil ester used by the present invention as surfactant on the solubility and clarity of the compound 1 were further tested. The specific results are as follows.
(§1) Experimental method: Referring to the process of preparation of solution in Preparation Example 1, the preparation was carried out in an amount of 10 vials, and the solutions with different pH values were prepared according to the following formulations (contents in each vial) for appearance observation.
In addition, the effect of Tween80 as surfactant of the present invention on the solubility and clarity of compound 1 was tested. Specific results are as follows.
Experimental Method: referring to the process of preparation of solution in Preparation Example 1, the solution was prepared according to the formulation in the Table below for appearance observation.
Similarly, the effect of Solutol HS-15 as surfactant of the present invention on the solubility and clarity of compound 1 was tested. Specific results are as follows.

[2] = Solubility of Compound 1 in different co-solvents (excess compound, HPLC analysis); type: physicochemical; details: organic solvent or mixture, thermodynamic from solid, about half an hour
Excerpt: 2. The effects of different co-solvents on the solubility of Compound 1 were observed. The specific results are as follows.
Experimental method: Compound 1 was taken in excess amount, suspended in various solvents, sampled and filtered after about half an hour, and analyzed by HPLC analysis.

[3] = Effect of pH value on the solubility of Compound 1 (solution appearance); type: physicochemical
Protocol: as §1, with “vial), and the properties of the prepared solutions were observed.” for “vial) for appearance observation.”
The thicker of the milky white, the worse of the solubility.

[4] = General statements on solubility and stability of Compound 1 versus pH; type: physicochemical
[5] = test system: cancer cells; details: see WO2014113413; cited from earlier work

- Solution appearance ([1]; Table 3a: compound 1 10 mg/ml, Tween80 50 mg, pH 9.0): Transparent solution
- Solution appearance ([1]; Table 3b: compound 1 10 mg/ml, Solutol HS-15 240 mg, pH 8.7): Transparent solution
- solubility ([2]; solvent Ethanol, 25° C.): 850 µg/mL (≈ 663 µM)
- solubility ([2]; solvent Glycerin, 25° C.): 450 µg/mL (≈ 351 µM)
- solubility ([2]; solvent PEG400, 25° C.): 16800 µg/mL (≈ 13100 µM)
- solubility ([2]; solvent Propylene glycol, 25° C.): 3100 µg/mL (≈ 2420 µM)
- solubility of Compound 1 ([3]; pH 7.888, Table 1 formulation): poor
- solubility of Compound 1 ([3]; pH 8.528, Table 1 formulation): acceptable
- solubility of Compound 1 ([3]; pH 9.016, Table 1 formulation): acceptable
- solubility of Compound 1 ([3]; pH 9.326, Table 1 formulation): best solubility
- solubility ([4]; acidic or near-neutral solutions): extremely poorly soluble
- dissolution ([4]; alkaline conditions): greatly improved
- stability ([4]; alkaline conditions): unstable
SMILES: Cc1c(S(C)(=O)=O)c(-c2cc(F)cc(N3CCN(c4ccc(NS(=O)(=O)c5ccc(N[C@H](CCN6CCC(C(=O)OCCCP(=O)(O)O)CC6)CSc6ccccc6)c(S(=O)(=O)C(F)(F)F)c5)cc4)CC3)c2)c(-c2ccc(Cl)cc2)n1C(C)C [Compound 1, (3R)-1-(3-(4-(4-(4-(3-(2-(4-chlorophenyl)-1-isopropyl-4-methylsulfonyl-5-methyl-1H-pyrrol-3-yl)-5-fluorophenyl)piperazin-1-yl)-phenylaminosulfonyl)-2-trifluoromethylsulfonyl-anilino)-4-phenylthio-butyl)-piperidine-4-carboxylic acid 3-phosphonopropyl ester]
- inducing apoptosis of cancer cells [5]: effective
